From paper doi:10.1101/2025.11.21.689824v1, “Fluorescent Biosensor-Guided Engineering of Enzyme Cascades for Electrochemical Applications” (biorxiv, 2025)
Like-named read-outs stand apart in the source and are kept apart here.

Assays:
[1] = molecular target: H23 fusion (MDH-scaffolded KKRQKKKRK linker-fumarase); test: inhibition of fumarate to NADH cascade, Lineweaver-Burk; format: biochemical, Escherichia coli; settings: 500 µM NAD+, fumarate 0.25-8 mM, 100 mM potassium phosphate, 0.5 nM enzyme; competitive at the MDH part; cascade read-out; read-out: apparent Ki
[2] = molecular target: V0 fusion (MDH-G4SG4S-fumarase); test: as above; format: biochemical, Escherichia coli; settings: 500 µM NAD+, fumarate 0.25-8 mM, 100 mM potassium phosphate, 0.5 nM enzyme; competitive at the MDH part; cascade read-out; read-out: apparent Ki
Experimental: inhibition of fumarate to NADH cascade, Lineweaver-Burk on V0 fusion (MDH-G4SG4S-fumarase) | the apparent inhibition constant (Ki) of citrate on the enzymatic cascade was determined

[3] = tested on: Single-chain T. thermophilus Fumarase #1 V0 MDH Linkage (T1-V0); settings: fumarase component; potassium phosphate buffer, 1 µM enzyme
[4] = tested on: Single-chain T. thermophilus Fumarase #1 H23 MDH Linkage (T1-H23); settings: fumarase component; potassium phosphate buffer, 1 µM enzyme
[5] = tested on: T1, Single-chain T. thermophilus Fumarase #1; settings: potassium phosphate buffer, 1 µM enzyme
T1 construct: gene fumC

[6] = molecular target: T2, WT Fumarase (FumC, class II) (Escherichia coli, UniProt P05042); test: UV absorbance of fumarate, Lineweaver-Burk; format: biochemical; settings: potassium phosphate buffer, 20 nM enzyme; free enzyme
T2 construct: full length, N-terminal leader […]; (His tag, T7 gene 10 leader, Xpress) in pBAD, expressed in E. coli XL1-Blue; homotetramer
T2 sequence (P05042 1-467): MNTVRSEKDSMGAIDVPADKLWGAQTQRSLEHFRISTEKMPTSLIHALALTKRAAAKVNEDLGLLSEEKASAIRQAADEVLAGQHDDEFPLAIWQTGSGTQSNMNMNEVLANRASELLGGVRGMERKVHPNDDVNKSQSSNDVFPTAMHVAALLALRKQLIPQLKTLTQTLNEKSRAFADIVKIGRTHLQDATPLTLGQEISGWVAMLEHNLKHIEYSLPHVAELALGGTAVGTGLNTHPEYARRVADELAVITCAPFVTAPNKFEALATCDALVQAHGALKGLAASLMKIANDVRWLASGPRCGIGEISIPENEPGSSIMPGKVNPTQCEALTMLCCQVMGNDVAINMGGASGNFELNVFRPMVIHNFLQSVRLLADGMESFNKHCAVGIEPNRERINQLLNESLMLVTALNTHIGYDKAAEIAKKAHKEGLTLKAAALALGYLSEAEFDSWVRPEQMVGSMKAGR

[7] = tested on: V0 fusion (MDH-G4SG4S-fumarase); settings: fumarase component; potassium phosphate buffer, 20 nM enzyme; free enzyme
[8] = tested on: H23 fusion (MDH-scaffolded KKRQKKKRK linker-fumarase); settings: fumarase component; potassium phosphate buffer, 20 nM enzyme; free enzyme
[9] = tested on: T3, Single-chain E. coli Fumarase #2; settings: potassium phosphate buffer, 1 µM enzyme
T3 construct: gene fumC

[10] = tested on: Single-chain T. thermophilus Fumarase #1 H23 MDH Linkage (T1-H23); settings: MDH component; 50 mM NAD+, potassium phosphate buffer; not told whether the fumarase part was inactivated
[11] = tested on: Single-chain T. thermophilus Fumarase #1 V0 MDH Linkage (T1-V0); settings: MDH component; 50 mM NAD+, potassium phosphate buffer; not told whether the fumarase part was inactivated
[12] = tested on: V0 fusion (MDH-G4SG4S-fumarase); settings: MDH component, fumarase part inactivated; 50 mM NAD+, potassium phosphate buffer, 1 nM enzyme
[13] = tested on: H23 fusion (MDH-scaffolded KKRQKKKRK linker-fumarase); settings: MDH component, fumarase part inactivated; 50 mM NAD+, potassium phosphate buffer, 1 nM enzyme

O=C(O)CC(O)(CC(=O)O)C(=O)O [citrate]
Ki [1]: 8.57 ± 0.71 mM | Ki [2]: 1.65 ± 0.15 mM

O=C(O)/C=C/C(=O)O [fumarate]
Km [3]: 969 ± 61 µM | Km [4]: 972 ± 62 µM | Km [5]: 809 ± 59 µM | Km [6]: 443 ± 101 µM | Km [7]: 759 ± 51 µM | Km [8]: 934 ± 66 µM | Km [9]: 758 ± 192 µM

O=C(O)C[C@H](O)C(=O)O [malate]
Km [10]: 1150 ± 370 µM | Km [11]: 1050 ± 390 µM | Km [12]: 1210 ± 70 µM | Km [13]: 1220 ± 60 µM
